Measurements published in patent publication US20030134851A1, “Methods and compositions for providing glutamine” (priority 2001, published 2003).
Entries after “also recorded” stand apart in the source; their conditions may differ. Marks after values point to notes of the source that are not given here.

Assay: Stability in liquid nutritional type products during retort sterilization and room temperature storage
Type: physicochemical
Method: In order to test the stability of N-acetyl-L-glutamine in a matrix similar to that found in liquid nutritional type products, the following procedure was followed. […] The product containing N-acetyl-L-glutamine was made according to the procedure set forth above in Example 1. The product containing glutamine was made in a similar manner, except […].79 kg) was substituted for N-acetyl-L-glutamine. The products were assessed for degradation before and after a retort sterilization process, which is typical for liquid nutritional processing (here, 128° C. for 5 minutes). The products were stored at room temperature (20-22° C.) and assessed for evidence of degradation at 1, 2 and 3 months. Glutamine, N-acetyl-L-glutamine and pyroglutamic acid (if present) were quantified at each process and time point. In order to analyze by HPLC for glutamine, N-acetyl-L-glutamine and pyroglutamic acid, samples were filtered as follows. A 5.0 mL aliquot was transferred to a 50 mL volumetric flask. Twenty drops of 1 M hydrochloric acid was added and the sample was diluted to volume with deionized water. An aliquot was filtered through a 0.45 micron filter (Millipore, Millex®-HV, 25 mm). The samples were analyzed by HPLC as described above (Heat Stability section). The total amount of pyroglutamic acid present in the protein formula, including both free pyroglutamic acid and N-terminal pyroglutamic acid, can be determined by the following method. Initially, samples were prepared as a water solution to a concentration of approximately 18 g total protein/L. A 20 microliter aliquot of the prepared sample material was placed in a 1.5 mL screw cap vial, and 980 microliters of a freshly prepared enzyme solution (0.05 M Tris, 0.005 M dithiothreitol, 0.001 M disodium ethylenediaminetetraacetic acid (EDTA), pH 8.0, containing 11 units of pyroglutamate aminopeptidase/mL) was added. The vial was tightly capped, and incubated at room temperature (21-24° C.) for 24 hours. The solution was then processed through a C-18 SPE cartridge as detailed below. For free pyroglutamic acid determination, the initial sample solution was diluted to a total protein content of 2-3 g/L in deionized water, and processed through a C-18 SPE cartridge. C-18 SPE (Solid Phase Extraction) cartridges (100 mg/1 mL size) were obtained from Burdick & Jackson, Muskegon, Mich. SPE cartridges were prepared for use with 2×5 volumes of methanol, and then rinsed with 2×5 volumes of deionized water. The 1 mL sample is then slowly applied, and flow-through material collected in a […] screw cap vial. Elution was completed by applying 2×500 microliters of deionized water, collecting pass through volume in the same vial. The eluate was mixed, and then an aliquot filtered through a 0.45 micrometer filter prior to HPLC analysis (25 mm, 0.45 micrometer filters were obtained from Gelman, Ann Arbor, Mich.). The HPLC system used had the following parameters: pump model G1312A, autosampler model G1313A, thermostatted column compartment model G1316A, diode array detector model G1315A, and peak integrator/data processor model […], all obtained from Agilent Technologies, Palo Alto, Calif. Column: 6.5×150 mm ION-310, 8 micrometer from Interaction Chromatography, San Jose, Calif. The system was pre-equilibrated in mobile phase (5 mN H2SO4) at 40° C. at 0.3 mL/min. prior to use. For analysis a 10 microliter aliquot of sample or standard was injected, and the column was eluted with mobile phase at 0.3 mL/min. and 40° C. Eluting materials were detected by UV absorption at 210 nm and 220 nm. The run time was 45 min. Unknown sample concentrations were determined by comparison to standards. Three aqueous solutions of pyroglutamic acid are usually sufficient as standards, i.e., 10, 20, and 40 mg/L (pyroglutamic acid obtained from Fluka, Milwaukee, Wis.).

[1] = 1 month at room temperature after sterilization
[2] = 2 months at room temperature after sterilization
[3] = 3 months at room temperature after sterilization
[4] = Post-Sterilization (retort, 128° C. for 5 minutes)

SMILES | Glutamine in product with glutamine [1] | pyroglutamic acid in product with glutamine (1 month, calculated with response factor from glutamine standard) | Glutamine in product with glutamine [2] | pyroglutamic acid in product with glutamine (2 months, calculated with response factor from pyroglutamic acid standard) | Glutamine in product with glutamine [3] | pyroglutamic acid in product with glutamine (3 months, calculated with response factor from pyroglutamic acid standard) | Glutamine in product with glutamine [4] | pyroglutamic acid in product with glutamine (Post-Sterilization, calculated with response factor from glutamine standard) | pyroglutamic acid in product with glutamine (Pre-Sterilization, calculated with response factor from glutamine standard) | Glutamine remaining as fraction of the original concentration (glutamine supplemented product, after the sterilization process) | Glutamine in product with glutamine (liquid nutritional type product, Pre-Sterilization (theoretical 87.6)) | N-acetyl-L-glutamine in product with N-acetyl-L-glutamine [1] | N-acetyl-L-glutamine in product with N-acetyl-L-glutamine [2] | N-acetyl-L-glutamine in product with N-acetyl-L-glutamine [3] | N-acetyl-L-glutamine in product with N-acetyl-L-glutamine [4] | Degradation in the liquid nutritional type product (in words) (during sterilization or after 3 months room temperature storage) | N-acetyl-L-glutamine in product with N-acetyl-L-glutamine (liquid nutritional type product, Pre-Sterilization (theoretical 87.7))
NC(=O)CC[C@H](N)C(=O)O [Glutamine, glutamine] | 13.7 mmol/L product | 92.9* mmol/L product | no glutamine was detected; also recorded: trace | 79.8** mmol/L product | none | 80.6** mmol/L product | 34.2 mmol/L product | 77.5* mmol/L product | 27.1* mmol/L product | about ⅓ | 97.8 mmol/L product |  |  |  |  |  | 
CC(=O)N[C@@H](CCC(N)=O)C(=O)O [N-acetyl-L-glutamine] |  |  |  |  |  |  |  |  |  |  |  | 89.8 mmol/L product | 94.1 mmol/L product | 89.3 mmol/L product | 89.8 mmol/L product | no degradation | 92.5 mmol/L product
